Assay: Polymer solubility in pH 6.8 buffer (visual inspection)
Protocol: A general workflow for evaluating cellulose ester derivatives for ASD applications can include evaluating polymer solubility, nucleation time, and surface tension. Polymer solubility was evaluated by examining solubility in pH 6.8 buffer and organic solvents. Nucleation induction time was measured using 9 different polymers and 3 model therapeutic compounds. Surface tension was determined by correlating surface tension and induction time.

CA320S Glutarate [CA320GA]
Water solubility (in words): water-soluble
